How the values were obtained:
Assay in all cases: IA-DTB cysteine engagement
Format in all cases: binding
Conditions in all cases: 22Rv1 cells, 20 μM probe, 1 h, relative to DMSO
PRXL2A_C88 = target: T1, PRXL2A_C88 (Homo sapiens, UniProt Q9BRX8)
T1 construct: endogenous in cells; host or cells: 22Rv1
T1 sequence (Q9BRX8 1-229): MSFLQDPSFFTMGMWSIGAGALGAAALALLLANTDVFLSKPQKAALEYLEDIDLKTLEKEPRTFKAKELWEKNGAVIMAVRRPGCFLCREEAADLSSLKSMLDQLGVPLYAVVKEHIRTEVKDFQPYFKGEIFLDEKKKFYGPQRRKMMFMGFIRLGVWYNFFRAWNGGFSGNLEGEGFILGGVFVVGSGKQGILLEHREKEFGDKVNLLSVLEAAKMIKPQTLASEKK
Method in brief: (§1)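 Probe-exposed cells were lysed, IA-DTB-labeled, trypsinized and streptavidin-enriched. Multiplexed TMT quantitation gave engagement ratios versus DMSO, with non-tryptic peptides excluded and intensities normalized to median summed signal.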

STK11_C418 = target: T2, STK11_C418 (Homo sapiens, UniProt Q15831)
T2 construct: endogenous in cells; host or cells: 22Rv1
T2 sequence (Q15831 1-433): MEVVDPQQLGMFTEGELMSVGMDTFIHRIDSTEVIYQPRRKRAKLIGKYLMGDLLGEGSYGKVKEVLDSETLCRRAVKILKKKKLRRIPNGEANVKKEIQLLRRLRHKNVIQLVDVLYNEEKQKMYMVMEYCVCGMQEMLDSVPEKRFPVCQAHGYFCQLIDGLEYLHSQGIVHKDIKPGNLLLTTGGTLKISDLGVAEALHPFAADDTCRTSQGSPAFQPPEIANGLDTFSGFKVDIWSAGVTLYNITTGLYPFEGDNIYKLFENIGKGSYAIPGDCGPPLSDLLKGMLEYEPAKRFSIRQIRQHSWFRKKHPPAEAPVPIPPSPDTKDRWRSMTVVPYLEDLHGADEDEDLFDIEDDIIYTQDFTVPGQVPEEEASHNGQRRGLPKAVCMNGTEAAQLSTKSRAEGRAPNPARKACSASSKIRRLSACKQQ
Method in brief: as §1

CPT1A_C96 = target: T3, CPT1A_C96 (Homo sapiens, UniProt P50416)
T3 construct: endogenous in cells; host or cells: 22Rv1
T3 sequence (P50416 1-773): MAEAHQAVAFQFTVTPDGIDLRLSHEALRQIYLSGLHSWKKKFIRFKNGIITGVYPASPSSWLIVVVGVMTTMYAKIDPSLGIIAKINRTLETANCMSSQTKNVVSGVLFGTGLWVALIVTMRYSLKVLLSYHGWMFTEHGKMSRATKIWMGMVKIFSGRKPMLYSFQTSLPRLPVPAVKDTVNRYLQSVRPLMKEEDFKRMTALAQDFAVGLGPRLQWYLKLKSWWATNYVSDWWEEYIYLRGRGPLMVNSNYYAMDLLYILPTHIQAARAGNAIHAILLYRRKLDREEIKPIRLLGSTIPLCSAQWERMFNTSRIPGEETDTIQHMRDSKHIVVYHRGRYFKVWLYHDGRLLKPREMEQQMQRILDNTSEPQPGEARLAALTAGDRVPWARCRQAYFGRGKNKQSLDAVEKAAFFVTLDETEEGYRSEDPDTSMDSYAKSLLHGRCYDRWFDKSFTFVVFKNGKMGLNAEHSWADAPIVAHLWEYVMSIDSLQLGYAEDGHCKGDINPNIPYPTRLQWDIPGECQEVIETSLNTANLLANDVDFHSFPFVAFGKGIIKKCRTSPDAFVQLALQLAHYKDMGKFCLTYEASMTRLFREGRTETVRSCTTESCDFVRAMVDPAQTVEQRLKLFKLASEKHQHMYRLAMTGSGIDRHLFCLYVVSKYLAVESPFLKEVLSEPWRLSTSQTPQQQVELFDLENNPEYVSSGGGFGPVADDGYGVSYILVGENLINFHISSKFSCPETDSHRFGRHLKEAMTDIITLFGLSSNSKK
Method in brief: as §1

| Compound | % engagement PRXL2A_C88 (PRXL2A_C88) | % engagement STK11_C418 (STK11_C418) | % engagement CPT1A_C96 (CPT1A_C96) |
| --- | --- | --- | --- |
| C=CC(=O)N1C[C@@H](c2ccc(Br)cc2)[C@H]1C(=O)Nc1cccc2cccnc12 [MY-1A, (2S,3R)-1-acryloyl-3-(4-bromophenyl)-N-(quinolin-8-yl)azetidine-2-carboxamide] | 96.25% | 83.5% | 87% |
| C=CC(=O)N1C[C@H](c2ccc(Br)cc2)[C@@H]1C(=O)Nc1cccc2cccnc12 [MY-1B, (2R,3S)-1-acryloyl-3-(4-bromophenyl)-N-(quinolin-8-yl)azetidine-2-carboxamide] | 97.25% | 66.5% | 84.75% |
| C=CC(=O)N1C[C@H](c2ccc(Br)cc2)[C@H]1C(=O)Nc1cccc2cccnc12 [MY-3A, (2S,3S)-1-acryloyl-3-(4-bromophenyl)-N-(quinolin-8-yl)azetidine-2-carboxamide] | 95% | 38% | 89.25% |
| C=CC(=O)N1C[C@H](c2ccc(Br)cc2)[C@H]1C(=O)Nc1cccc2cccnc12 [MY-3B, (2S,3S)-1-acryloyl-3-(4-bromophenyl)-N-(quinolin-8-yl)azetidine-2-carboxamide] | 97.25% | 61.5% | 93.5% |
